Like-named read-outs stand apart in the source and are kept apart here.
What was measured:
Assay type in all cases: cell-based, human
RKO cells = test: Proliferation inhibition, CellTiter-Glo, RKO; details: Table D-1, RKO (BRAF V600E), 3 days, read-out: Prolif. (proliferation EC50)
Protocol: (§1) All cancer cell lines (A375, A101D, A2058, RKO, HT29 SK-MEL 30, IPC298, HepG2, HCT-116, Lovo, SW620, SW480, NCI-H358, NCI-H2122, Calu-6, NCIH2087, NCIH1755, NCIH1666 and Mewo) were obtained from ATCC and cultured in RPM1-1640 medium (Gibco) supplemented with 5% heat inactivated fetal bovine serum (FBS, Wisent) at 37° C. under 5% CO2. Cells were maintained in T175 flasks (Greiner). They were passaged by removing the culture medium, washing once in 10 mL of room temperature Phosphate Buffered Saline (PBS; Wisent) and incubating at 37° C. with 2 mL of 0.05% Trypsin (Thermo-Fisher). Trypsin was then inactivated by adding complete growth medium and the cells were then replated in a T175 culture dish at the appropriate dilution. All cell lines were routinely tested for mycoplasma contamination. Tissue type and mutational status of each cell line can be found in Table B.
(§2) CellTiter-Glo® viability analysis was conducted on cells plated in 100 μL of complete RPMI-1640 growth medium in 96-well flat-bottomed white opaque plates (Greiner or Croning) at a density indicated in Table E (for each CCL, number of cells plated per well of a 96-well plate to perform the CellTiter-Glo® cell viability assay). The cell density in cells/cm^2 would correspond to cell number divided by the area of one well of a 96-well plate (0.32 cm^2). […]
(§3) After 3 days of incubation, the growth media were removed by aspiration and 60 μL of diluted CellTiter-Glo® reagent (10 μL CellTiter-Glo® reagent+50 μL of PBS) was added to each well. […] Luminescence signals were then acquired on a Synergy Neo2 plate reader (Biotek).
(§4) The effect of each compound dilution on the proliferation of cancer cell lines was expressed in % inhibition and calculated as follows. […]
(§5) The ability of each compound to inhibit proliferation was expressed as a EC50 value obtained by plotting the effect values for each data point of a dilution series and fitting the obtained curves using a log(agonist) versus response—variable slope (four parameters) function using GraphPadPrism (V7.0) or Dotmatics Screening Ultra platform.

pERK, SW620 cells = test: Phospho-ERK inhibition, AlphaLISA p-ERK 1/2, SW620; details: Table D-2; for IC50: SW620 (KRAS-G12V); for pERK value in parentheses, % inhibition (Ymin): SW620, lowest point of IC50 curve
Protocol: as §1
(§6) (c) Measurement of Phospho-ERK Inhibition in Cultivated Human Cancer Cell Lines by the AlphaLISA® SureFire® Ultra™ p-ERK 1/2 (Thr2O2/Tyr204)
(§7) AlphaLISA® SureFire® Ultra™ p-ERK 1/2 (Thr202/Tyr204) analysis was conducted on cells plated in 100 μL of complete RPMI-1640 growth medium in 96-well flat-bottomed transparent dishes (Costar) at a density indicated in Table C. Cells were maintained overnight at 37° C. under 5% CO2 before treatment with compounds' dilution series for one hour. The cell density in cells/cm^2 corresponds to cell number divided by the area of one well of a 96-well plate (0.143 cm^2).
(§8) In a dilution series 100 μL/well of test substance dilution prepared in complete RPMI-1640 growth media was added to the cells. The dilution series is selected so that ten concentrations cover a range from 10 μM to 0.33 nM. If necessary, the initial concentration of 10 μM is increased to 100 μM or lowered to 1 μM (as in the case of A375 and H1666 cells, which are generally more sensitive to the compounds) and further dilution is carried out accordingly. The final concentration of DMSO in the assay is set at 0.5%.
(§9) After treatment, media was removed, and cells were lysed in 50 μL of 1× AlphaScreen Ultra Lysis Buffer (Perkin Elmer). The AlphaLISA® SureFire® Ultra™ p-ERK 1/2 (Thr202/Tyr204) (PerkinElmer) reactions were performed with 5 μL of cell lysate according to the manufacturer's specifications in 384-well proxyplates (Perkin Elmer) followed by overnight incubation of the reactions at room temperature in a humidified chamber. After completion of the reactions, the signals were recorded on an EnVision plate reader (Perkin Elmer) using built in AlphaLISA® settings.
(§10) The effect of each compound dilution on the pERK signal was expressed in % inhibition and calculated as follows. An internal 100% inhibition control (1 μM trametinib, cat. No. HY-10999; MedChem Express; CAS No. 871700-17-3) was included in each plate and used as a measure of pERK background. First, the value obtained for trametinib was subtracted from each data point. The average of DMSO (vehicle) controls (set as 0% inhibition) was established and used to calculate % inhibition:
as §5, with “pERK signal” for “proliferation”, “an IC50” for “a EC50”, “inhibition” for “effect”
(§11) When present, paradoxical pERK induction is inferred from the negative % inhibition values observed in the pERK IC50 curves of a compound.

pERK, Lovo cells = test: Phospho-ERK inhibition, AlphaLISA p-ERK 1/2, Lovo; details: Table D-2; for IC50: Lovo (KRAS-G13D); for pERK value in parentheses, % inhibition (Ymin): Lovo, lowest point of IC50 curve
Protocol: as §1, §6, §7, §8, §9, §10
as §5, with “pERK signal” for “proliferation”, “an IC50” for “a EC50”, “inhibition” for “effect”
as §11

NCI-H358 cells = test: Proliferation inhibition, CellTiter-Glo, NCI-H358; details: Table D-2, NCI-H358 (KRAS-G12C), 3 days, read-out: Prolif. (proliferation EC50)
Protocol: as §1, §2, §3, §4, §5

pERK, Calu6 cells = test: Phospho-ERK inhibition, AlphaLISA p-ERK 1/2, Calu-6; details: Table D-2; for IC50: Calu6 (KRAS Q61K); for pERK value in parentheses, % inhibition (Ymin): Calu6, lowest point of IC50 curve
Protocol: as §1, §6, §7, §8, §9, §10
as §5, with “pERK signal” for “proliferation”, “an IC50” for “a EC50”, “inhibition” for “effect”
as §11

SW620 cells = test: Proliferation inhibition, CellTiter-Glo, SW620; details: Table D-2, SW620 (KRAS-G12V), 3 days, read-out: Prolif. (proliferation EC50)
Protocol: as §1, §2, §3, §4, §5

| IC50 (pERK, SW620 cells; Homo sapiens, SW-620) [nM] | IC50 (pERK, Lovo cells; Homo sapiens) [nM] | EC50 (NCI-H358 cells; Homo sapiens, 72 h) [nM] | IC50 (pERK, Calu6 cells; Homo sapiens, Calu-6) [nM] | EC50 (SW620 cells; Homo sapiens, SW-620, 72 h) [nM] | IC50 (pERK, SW620 cells) [nM] | IC50 (pERK, Lovo cells) [nM] | EC50 (NCI-H358 cells) [nM] | IC50 (pERK, Calu6 cells) [nM] | EC50 (SW620 cells) [nM] | Compound | EC50 (RKO cells; Homo sapiens, 72 h) [nM] | pERK value in parentheses, % inhibition (Ymin) (pERK, SW620 cells) | pERK value in parentheses, % inhibition (Ymin) (pERK, Lovo cells) | pERK value in parentheses, % inhibition (Ymin) (pERK, Calu6 cells) | EC50 (RKO cells) [nM] |
| --- | --- | --- | --- | --- | --- | --- | --- | --- | --- | --- | --- | --- | --- | --- | --- |
| 30 to 300 | < 30 | 300 to 3000 | 30 to 300 | 300 to 3000 | – | – | – | – | – | Cc1ccc2c(Nc3cccc(Cl)c3F)nccc2c1NC(=O)c1csc2c(N)ncnc12 [Belvarafenib, reference compound] | < 300 | (−151) % | (−12) % | (−39) % | – |
| – | – | – | – | – | 30 to 300 | 30 to 300 | < 300 | < 30 | < 300 | Cc1c(F)cccc1S(=O)(=O)Nc1ccc(F)c(Nc2ncnc3sc(-n4cc(C(=O)N5C6CCC5CN(C)C6)c5ccccc54)nc23)c1F [Example 44] | – | (3) % | (−10) % | (−12) % | < 300 |
| – | – | – | – | – | 30 to 300 | 30 to 300 | < 300 | 30 to 300 | < 300 | N#CC1(c2cccc3c2ncn3-c2nc3c(Nc4c(F)ccc(NS(=O)(=O)c5cccc(Cl)c5Cl)c4F)ncnc3s2)CC1 [Example 122] | – | (−6) % | (13) % | (−8) % | < 300 |

— patent US20260137697A1, “THIAZOLO[5,4-D]PYRIMIDINE COMPOUNDS, COMPOSITIONS COMPRISING THEM AND USES THEREOF” (University de Montreal, priority 2022, published 2026)
